Assay [1] deals with estrogen-responsive reporter gene (ERE-tk109-Luc) in MCF-7 cells. Nature of the assay: Inhibition of E2-induced transcription, ERE-tk109-Luc reporter gene in MCF-7 cells. It is filed as cell-based, human. The note with it: 100 pM 17β-estradiol (E2), 18-22 hours, read-out: IC50, inhibition of E2-induced transcription in breast cells. The procedure:
Representative compounds were tested for their inhibitory activity of estrogen according to the assay methods described in Hodges-Gallagher, L., Valentine, C. V., El Bader, S. and Kushner, P. J. (2007) “Histone Deacetylase Inhibitors Enhance the Efficacy of Hormonal Therapy Agents on Breast Cancer Cells and Blocks Anti-estrogen-Driven Uterine Cell Proliferation” Breast Cancer Res Treat, November; 105(3):297-309. Specifically, an estrogen-responsive reporter gene (ERE-tk109-Luc) was transiently transfected into MCF-7 cells and treated with anti-estrogens in triplicate in the presence of 100 pM 17β-estradiol (E2) for 18-22 hours. Luciferase activity was normalized to activity of E2 alone and IC50's were calculated using the least squares fit method.

Assay [2] concerns MCF-7 breast cancer cells. Briefly: Inhibition of E2-stimulated proliferation of MCF-7 breast cancer cells. The class given is cell-based, human. The settings on record: 100 pM E2, hormone-depleted medium, 6-8 days. The procedure: Proliferation of MCF-7 breast cancer cells was measured using a fluorescent DNA binding dye 6-8 days after treatment in triplicate with representative compounds in the presence of 100 pM E2 in hormone-depleted medium. IC50's were calculated from individual experiments as in Example 25.

For another assay, the target named is T1, ERα (Homo sapiens, UniProt P03372).
T1 construct: ERα expression was detected in MCF-7 cell lysates treated with 100 nM antiestrogens in serum-free medium for 24 hours; endogenous in cells; host or cells: MCF-7
T1 sequence (P03372 1-595): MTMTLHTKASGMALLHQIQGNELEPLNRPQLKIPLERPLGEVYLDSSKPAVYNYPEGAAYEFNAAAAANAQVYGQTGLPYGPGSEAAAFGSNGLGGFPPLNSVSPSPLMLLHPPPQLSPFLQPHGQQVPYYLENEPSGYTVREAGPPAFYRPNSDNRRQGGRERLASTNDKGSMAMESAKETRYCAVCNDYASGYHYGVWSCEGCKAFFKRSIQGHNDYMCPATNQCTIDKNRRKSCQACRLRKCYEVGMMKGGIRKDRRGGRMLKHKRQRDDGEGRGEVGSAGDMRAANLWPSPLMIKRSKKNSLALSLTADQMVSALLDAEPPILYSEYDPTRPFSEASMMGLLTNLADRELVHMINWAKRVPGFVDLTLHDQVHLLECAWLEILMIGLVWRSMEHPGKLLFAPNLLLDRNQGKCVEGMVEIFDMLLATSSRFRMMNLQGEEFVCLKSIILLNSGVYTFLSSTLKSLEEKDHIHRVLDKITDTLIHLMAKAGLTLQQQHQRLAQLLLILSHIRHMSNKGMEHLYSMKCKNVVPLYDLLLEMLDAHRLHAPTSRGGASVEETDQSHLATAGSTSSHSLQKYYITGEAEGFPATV
Nature of the assay: ERα expression in MCF-7 cell lysates (immunoblot). It is filed as cell-based. The settings on record: MCF-7 cells, 100 nM compound, serum-free medium, 24 hours, immunoblot band intensity. The procedure: ERα expression was detected in MCF-7 cell lysates treated with 100 nM antiestrogens in serum-free medium for 24 hours and immunoblotted with an antibody specific to ERα.
Band intensity was normalized relative to vehicle for each individual experiment and listed in Table 3 (Relative change ERα levels (% vehicle)).
On the technique in general: Immunoblotting shows a protein as a band on a membrane.

The subject of assay [3] is AP activity in ECC-1 cells. Briefly: Alkaline phosphatase (AP) assay in ECC-1 uterine cells, induction of AP activity. It is filed as cell-based, human. The settings on record: 3 days, normalized to 500 pM E2, maximum activity observed regardless of dose. The procedure: (§1) Method for performing the alkaline phosphatase (AP) assay. ECC-1 cells (American Type Culture Collection, Manassas, Va.) were maintained in RPMI medium plus 10% fetal bovine serum at 37° C. At the beginning of the assay trypsinized cells were resuspended in RPMI medium plus 5% charcoal dextran stripped serum (CDSS, (Hyclone, Logan, Utah)) and plated at a density of 25-50 k cells per well into a 96-well plate for at least 6 hours. Representative compounds were diluted in serum-free medium and added 1:1 to plated cells in replicate wells (2.5% CDSS final). Plates were incubated for 3 days at 37° C. and subsequently frozen at −80° C. to lyse cells after removing the medium. Thawed plates were incubated with a chromogenic substrate of AP, p-nitrophenyl phosphate (Invitrogen, Grand Island, N.Y.), for 40 minutes at 40° C. Absorbances were read at 405 nm using a plate spectrophotometer. AP activity was normalized to 500 pM 17β-estradiol (E2), reported as the maximum activity observed for each individual experiment, regardless of dose.

The test system of assay [4] is AP activity in ECC-1 cells. Briefly: Alkaline phosphatase (AP) assay in ECC-1 cells co-treated with 500 pM E2. It is filed as cell-based, human. The settings on record: 3 days. The procedure: as §1
AP activity was assayed as in Example 28 but cells were co-treated with 500 pM E2.

[5] abbreviates: Homo sapiens, MCF7, MCF-7 cells.

Like-named read-outs stand apart in the source and are kept apart here. Marks after values point to notes of the source that are not given here.

As to `CCCN1CC(Oc2ccc(C3Oc4cc(O)ccc4C(C)=C3c3ccccc3)cc2)C1` (single isomer, unassigned) [Compound 117, 4-methyl-3-phenyl-2-(4-((1-propylazetidin-3-yl)oxy)phenyl)-2H-chromen-7-ol], the IC50 in assay [1] (MCF-7 cells) is 4 nM; in assay [2] (MCF-7 cells) it was 33 nM. Moreover, the “Relative change ERα levels (% vehicle)” value on ERα is 45 % veh. Moreover, the “Induction of AP activity in uterine cells (% E2)” value (from here on “Induction of AP activity … (% E2)”) in assay [3] is on record as 16 % E2. In assay [4], the “AP activity (% E2), cells co-treated with 500 pM E2” value (“AP activity (% E2)” below) was determined as 8 % E2.
The corresponding values for `CCCN1CC(Oc2ccc(C3Oc4cc(O)ccc4C(C)=C3c3ccc(O)cc3)cc2)C1` (single isomer, unassigned) [Compound 105, 3-(4-hydroxyphenyl)-4-methyl-2-(4-((1-propylazetidin-3-yl)oxy)phenyl)-2H-chromen-7-ol] are 4 nM, 10 nM, 39 % veh, 4 % E2 and 4 % E2.
As for `CCCN1CC(Oc2ccc(C3Oc4cc(O)ccc4C(C)=C3c3ccccc3Cl)cc2)C1` (centres unmarked) [Compound 120, 3-(2-chlorophenyl)-4-methyl-2-(4-((1-propylazetidin-3-yl)oxy)phenyl)-2H-chromen-7-ol], the IC50 was determined as 8 nM in assay [1] (setting [5]) and 10 nM in assay [2] (setting [5]). Besides, at ERα, the “Relative change ERα levels (% vehicle)” value amounted to 61 % veh. Also, the “Induction of AP activity … (% E2)” value in assay [3] stood at 12 % E2. Further, in assay [4], the “AP activity (% E2)” value came out at 14 % E2.
Turning to `CCCN1CC(Cc2ccc(C3Oc4cc(O)ccc4C(C)=C3c3ccc(O)cc3)cc2F)C1` (single isomer, unassigned) [Compound 112, 2-(3-fluoro-4-((1-propylazetidin-3-yl)methyl)phenyl)-3-(4-hydroxyphenyl)-4-methyl-2H-chromen-7-ol], the IC50 was 2 nM in assay [1] (MCF-7 cells) and 7 nM in assay [2] (MCF-7 cells). For the same molecule, the “Relative change ERα levels (% vehicle)” value on ERα is given as 35 % veh. Further, the “Induction of AP activity … (% E2)” value in assay [3] is recorded as 5* % E2. The “AP activity (% E2)” value in assay [4] was 4 % E2.
Taken in the same sequence, the figures for `CCCN1CC(Cc2ccc(C3Oc4cc(O)ccc4C(C)=C3c3ccc(O)cc3)cc2)C1` (single isomer, unassigned) [Compound 103, 3-(4-hydroxyphenyl)-4-methyl-2-(4-((1-propylazetidin-3-yl)methyl)phenyl)-2H-chromen-7-ol] were 27 nM, 59 nM, 55 % veh, 23 % E2 and 36 % E2.
For `CCCN1CC(Oc2ccc(C3Oc4cc(O)ccc4C(C)=C3c3ccc(O)cc3)cc2)C1` (single isomer, unassigned) [Compound 106, 3-(4-hydroxyphenyl)-4-methyl-2-(4-((1-propylazetidin-3-yl)oxy)phenyl)-2H-chromen-7-ol], the results for the IC50 in assay [1] (MCF-7 cells) and in assay [2] (MCF-7 cells) were 54 nM and 114 nM, respectively. Moreover, the “Relative change ERα levels (% vehicle)” value at ERα was 53 % veh. Also, the “Induction of AP activity … (% E2)” value in assay [3] is 17 % E2. The “AP activity (% E2)” value in assay [4] came out at 44 % E2.
As for `CCCN1CC(Cc2ccc(C3Oc4cc(O)ccc4C(C)=C3c3ccc(O)cc3)cc2)C1` (centres unmarked) [Compound 101, 3-(4-hydroxyphenyl)-4-methyl-2-(4-((1-propylazetidin-3-yl)methyl)phenyl)-2H-chromen-7-ol], the IC50 in assay [1] (setting [5]) came to 3 nM; in assay [2] (setting [5]), 7 nM. The “Relative change ERα levels (% vehicle)” value at ERα worked out at 51 % veh. Also, the “Induction of AP activity … (% E2)” value in assay [3] was found to be 9 % E2. Besides, the “AP activity (% E2)” value in assay [4] was 8 % E2.

As usually defined, the IC50 is the midpoint of a concentration-inhibition curve.

The values above are taken from patent US20170362210A1, “ANTI-ESTROGENIC COMPOUNDS” (PFIZER INC., priority 2015, published 2017).
